Key:
Settings in all cases: stereoisomer not certain
[1] = HILIC, Waters ACQUITY UPLC BEH Amide, 150 × 2.1 mm, 1.7 µm, 40 °C, 0.5 mL/min, estimated dead time 0.66 min; A: 5% water + 95% acetonitrile; B: 70% water + 30% acetonitrile + 10 mM ammonium formate, pH 6.5; gradient (min/%B) 0/0 2/0 20/70 23/70 24/0 31/0
[2] = RP, Phenomenex Kinetex C18, 150 × 2.1 mm, 1.7 µm, 30 °C, 0.3 mL/min, estimated dead time 1.1 min; A: water + 0.1% formic acid, pH 3; B: acetonitrile + 0.1% formic acid, pH 3; gradient (min/%B) 0/2 14/100 17/100 17.1/2 25/2
[3] = HILIC, Merck SeQuant ZIC-pHILIC, 150 × 2.1 mm, 5 µm, 40 °C, 0.3 mL/min, estimated dead time 1.1 min; A: acetonitrile; B: water + 2.8 mM ammonium formate, pH 9; gradient (min/%B) 0/5 1/5 10/51 13/51 13.1/5 20/5
[4] = RP, Phenomenex Kinetex C18, 150 × 2.1 mm, 1.7 µm, 30 °C, 0.3 mL/min, estimated dead time 1.1 min; A: water + 0.1% formic acid, pH 3; B: acetonitrile + 0.1% formic acid, pH 3; gradient (min/%B) 0/2 14/100 17/100 17.1/2 25/2; remark: listed apart in the source

LC retention time [1] [min] | LC retention time [2] [min] | LC retention time [3] [min] | LC retention time [4] [min] | SMILES
2.6 | 5.18 | 3.18 | 5.37 | CC1NC(=O)NC1CCCCCC(=O)O (stereo unspecified) [DETHIOBIOTIN]
– | 4.09 | 5.52 | 2.14 | CC(O)C(O)C1=Nc2c(nc(N)[nH]c2=O)NC1 (stereo unspecified) [DIHYDROBIOPTERIN]
– | 11.3 | 9.42 | 4.35 | Nc1nc2ncc(CNc3ccc(C(=O)NC(CCC(=O)O)C(=O)O)cc3)nc2c(=O)[nH]1 (stereo unspecified) [FOLATE]
– | 11.8 | – | 11.8 | CCCCCC=CCC=CCC=CCCCCC(=O)[O-] [GAMMA-LINOLENATE]
– | 9.21 | 4.94 | 9.28 | CC(CCC(=O)NCC(=O)O)C1CCC2C3C(O)CC4CC(O)CCC4(C)C3CCC12C (stereo unspecified) [GLYCOCHENODEOXYCHOLATE]
– | 1.57 | 9.15 | 1.63 | N[C@@H](Cc1ccc(O)c(O)c1)C(=O)O [L-DOPA]
– | 7.41 | 6.19 | 7.42 | NC(Cc1cc(I)c(Oc2ccc(O)c(I)c2)c(I)c1)C(=O)O (stereo unspecified) [LIOTHYRONINE]
1.01 | 9.54 | – | 9.43 | CC(CCC(=O)NCCS(=O)(=O)O)C1CCC2C3CCC4CC(O)CCC4(C)C3CCC12C (stereo unspecified) [LITHOCHOLYLTAURINE]
– | 1.78 | 8.75 | 1.9 | CC(=O)NC(CCC(=O)O)C(=O)O (stereo unspecified) [N-ACETYLGLUTAMATE]
– | 3.39 | 6.05 | 3.52 | CC(=O)N1CCCC1C(=O)O (stereo unspecified) [N-ACETYLPROLINE]
– | 1.47 | 1.76 | 1.5 | O=C(O)c1cccnc1C(=O)O [QUINOLINATE]
– | 8.2 | – | 11.2 | CC(C=CC1=C(C)CCCC1(C)C)=CC=CC(C)=CC(=O)[O-] [RETINOATE]
– | 6.22 | – | 6.27 | CCCCCCSCC(NC(=O)CCC(N)C(=O)O)C(=O)NCC(=O)O (stereo unspecified) [S-HEXYL-GLUTATHIONE]
8.56 | – | 6.81 | 1.76 | C[Se]CCC(N)C(=O)O (stereo unspecified) [SELENOMETHIONINE]
1.32 | – | 1.93 | 3.68 | Cn1cnc2c1c(=O)[nH]c(=O)n2C [THEOBROMINE]
– | 8.07 | 6.1 | 8.06 | NC(Cc1cc(I)c(Oc2cc(I)c(O)c(I)c2)c(I)c1)C(=O)O (stereo unspecified) [THYROXINE]
– | 1.8 | – | 1.93 | O=C([O-])c1c[nH]c(=O)[nH]c1=O [URACIL 5-CARBOXYLATE]
– | 4.05 | 6.93 | 4.12 | O=C(O)c1cc(=O)c2cccc(O)c2[nH]1 [XANTHURENATE]

The remaining lines, values behind:

SMILES | LC retention time [1] [min] | LC retention time [2] [min] | LC retention time [3] [min] | LC retention time [4] [min]
Cn1cnc2c(ncn2C2OC(CO)C(O)C2O)c1=N (stereo unspecified) [1-METHYLADENOSINE] | 2.82 | 3.16 | 4.07 | 3.36
CC(=O)c1ccc(O)cc1O [2',4'-DIHYDROXYACETOPHENONE] | 0.96 | 6.35 | – | 6.45
O=c1[nH]c(=O)c2nccnc2[nH]1 [2,4-DIHYDROXYPTERIDINE] | 1.79 | 2.24 | 4.42 | 2.49
O=C(O)c1ccc([O-])c(O)c1 [3,4-DIHYDROXYBENZOATE] | – | 3.77 | 8.04 | 3.88
N[C@@H](Cc1cc(I)c(Oc2ccc(O)cc2)c(I)c1)C(=O)O [3,5-DIIODO-L-THYRONINE] | 6.98 | 6.44 | 6.36 | 6.51
N[C@@H](Cc1cc(I)c(O)c(I)c1)C(=O)O [3,5-DIIODO-L-TYROSINE] | – | 4.8 | 7.41 | 4.95
Nc1cc([O-])cc(C(=O)O)c1 [3-AMINO-5-HYDROXYBENZOATE] | 2.31 | 1.62 | 8.3 | 1.75
CC(O)(CC(=O)O)CC(=O)O [3-HYDROXYMETHYLGLUTARATE] | – | 2.24 | 8.15 | 2.36
N[C@@H](Cc1ccc(O)c([N+](=O)[O-])c1)C(=O)O [3-NITRO-L-TYROSINE] | – | 3.48 | 7.37 | 3.56
CC(=O)NCCCC(=O)[O-] [4-ACETAMIDOBUTANOATE] | 3.11 | 2.47 | 5.1 | 2.62
O=C(O)C=Cc1ccc(O)cc1 [4-COUMARATE] | – | 5.47 | 5.24 | 5.65
O=C(O)c1ccc([O-])cc1 [4-HYDROXYBENZOATE] | – | 4.51 | – | 4.66
Cc1ncc(CO)c(C(=O)O)c1O [4-PYRIDOXATE] | – | 2.73 | 1.69 | 2.83
O=C(O)c1ccnc2ccccc12 [4-QUINOLINECARBOXYLATE] | 2.82 | 2.29 | 5.08 | 2.5
CC1OC(n2cnc3c(N)ncnc32)C(O)C1O (stereo unspecified) [5'-DEOXYADENOSINE] | 2.4 | 3.11 | 4.24 | 3.24
O=C(O)Cc1c[nH]c2ccc(O)cc12 [5-HYDROXYINDOLEACETATE] | 1.37 | 4.49 | 5.86 | 4.69
NC(Cc1c[nH]c2ccc(O)cc12)C(=O)O (stereo unspecified) [5-HYDROXYTRYPTOPHAN] | – | 2.99 | 8.74 | 3.05
O=C(O)CCCCCC(=O)O [6-CARBOXYHEXANOATE] | – | 4.56 | 6.74 | 4.73

SMILES | LC retention time [1] [min] | LC retention time [2] [min] | LC retention time [3] [min] | LC retention time [4] [min]
O=C(O)c1ccc(=O)[nH]c1 [6-HYDROXYNICOTINATE] | 5.68 | 2.61 | 7.69 | 2.76
O=C(O)CCCCCCCC(=O)O [AZELATE] | 1.24 | 6.14 | 3.51 | 6.26
O=C(O)CCCCC1SCC2NC(=O)NC21 (stereo unspecified) [BIOTIN] | 5.11 | 4.77 | 5.57 | 4.98
CCCCC(CC)COC(=O)c1ccccc1C(=O)OCC(CC)CCCC (stereo unspecified) [BIS(2-ETHYLHEXYL)PHTHALATE] | – | 9.02 | – | 9.11
CC(CCC(=O)O)C1CCC2C3C(O)CC4CC(O)CCC4(C)C3CCC12C (stereo unspecified) [CHENODEOXYCHOLATE] | 1 | 10.7 | – | 10.8
CC(CCC(=O)O)C1CCC2C3C(O)CC4CC(O)CCC4(C)C3CC(O)C12C (stereo unspecified) [CHOLATE] | 2.62 | 9.02 | 2.33 | 9.11
CC12CCC(=O)C=C1CCC1C2CCC2(C)C1CCC2(O)C(=O)CO (stereo unspecified) [CORTEXOLONE] | 0.83 | 8.32 | – | 8.31
CC12CCC(=O)C=C1CCC1C2C(O)CC2(C)C(C(=O)CO)CCC12 (stereo unspecified) [CORTICOSTERONE] | 0.85 | 8.03 | – | 8.14
CC(=O)OCC(=O)C1(O)CCC2C3CCC4=CC(=O)CCC4(C)C3C(O)CC21C (stereo unspecified) [CORTISOL 21-ACETATE] | 0.83 | 8.62 | – | 8.68
CC12CCC(=O)C=C1CCC1C2C(O)CC2(C)C1CCC2(O)C(=O)CO (stereo unspecified) [CORTISOL] | 1 | 7.09 | 1.43 | 7.18
CC12CCC(=O)C=C1CCC1C2C(=O)CC2(C)C1CCC2(O)C(=O)CO (stereo unspecified) [CORTISONE] | 0.86 | 7.16 | – | 7.28
Nc1nc2c(ncn2C2OC3COP(=O)(O)OC3C2O)c(=O)[nH]1 (stereo unspecified) [CYCLIC GMP] | – | 2.64 | 8.22 | 2.8
Nc1ncnc2c1ncn2C1CC(O)C(CO)O1 (stereo unspecified) [DEOXYADENOSINE] | 2.91 | 2.54 | 5.19 | 2.8
Nc1ccn(C2CC(O)C(CO)O2)c(=O)n1 (stereo unspecified) [DEOXYCYTIDINE] | 5.71 | 1.43 | 6.63 | 1.54
Nc1nc2c(ncn2C2CC(O)C(CO)O2)c(=O)[nH]1 (stereo unspecified) [DEOXYGUANOSINE] | 6.48 | 2.84 | 7.04 | 2.97
O=c1ccn(C2CC(O)C(CO)O2)c(=O)[nH]1 (stereo unspecified) [DEOXYURIDINE] | 2.37 | 2.39 | 4.73 | 2.63
CC1NCCc2cc(O)c(O)cc21 (stereo unspecified) [SALSOLINOL] | 8.1 | 1.95 | – | 2.16

From the RepoRT retention time repository (doi:10.1016/j.chroma.2019.01.023)
